From paper PMC7034070, “Synthesis, anti-inflammatory, cytotoxic, and COX-1/2 inhibitory activities of cyclic imides bearing 3-benzenesulfonamide, oxime, and β-phenylalanine scaffolds: a molecular docking study” (Journal of Enzyme Inhibition and Medicinal Chemistry, 2020) come the findings set out here.

pIC50: −log10 of the molar value. Where “and” joins values, the source holds several entries; their conditions need not be identical. Equal values may be shown once.

For data set [1], the system named is NCI-H522 (NSC Lung Cancer). Description: NCI 59 cell line panel, single dose. It is filed as cell-based. The note with it: NCI-H522, one dose 10.0 μM.
The next data set relates to 59 cancer cell lines. Description: full NCI 59 cell line panel assay, single dose. The format is cell-based. The note with it: one dose 10.0 μM, 59 cell lines.
In data set [2] the test system is carrageenan induced rat paw oedema. Put plainly: rat carrageenan-induced foot paw oedema model. It is filed as in vivo. Conditions: 2 h after carrageenan; for Mean % increase in paw weight ± SEM: control group 165.6 ± 1.6; for % Inhibition of paw oedema from control group: single dose screen (Table 1). On the procedure:
Anti-inflammatory assessment of the newly synthesised compounds was carried out using an in vivo rat carrageenan-induced foot paw oedema model, as reported previously[16]^,[17].
A general note: In the carrageenan paw model, swelling and tenderness develop within hours.

A further data set concerns UO-31 (Renal Cancer). Description: NCI 59 cell line panel, single dose. It is filed as cell-based. The note with it: UO-31, one dose 10.0 μM.
In a further data set the target is T1, COX-2 (Ovis aries, UniProt P79208).
T1 construct: purchased Cayman Chemicals Inc., Ann Arbour, MI
T1 sequence (P79208 17-603): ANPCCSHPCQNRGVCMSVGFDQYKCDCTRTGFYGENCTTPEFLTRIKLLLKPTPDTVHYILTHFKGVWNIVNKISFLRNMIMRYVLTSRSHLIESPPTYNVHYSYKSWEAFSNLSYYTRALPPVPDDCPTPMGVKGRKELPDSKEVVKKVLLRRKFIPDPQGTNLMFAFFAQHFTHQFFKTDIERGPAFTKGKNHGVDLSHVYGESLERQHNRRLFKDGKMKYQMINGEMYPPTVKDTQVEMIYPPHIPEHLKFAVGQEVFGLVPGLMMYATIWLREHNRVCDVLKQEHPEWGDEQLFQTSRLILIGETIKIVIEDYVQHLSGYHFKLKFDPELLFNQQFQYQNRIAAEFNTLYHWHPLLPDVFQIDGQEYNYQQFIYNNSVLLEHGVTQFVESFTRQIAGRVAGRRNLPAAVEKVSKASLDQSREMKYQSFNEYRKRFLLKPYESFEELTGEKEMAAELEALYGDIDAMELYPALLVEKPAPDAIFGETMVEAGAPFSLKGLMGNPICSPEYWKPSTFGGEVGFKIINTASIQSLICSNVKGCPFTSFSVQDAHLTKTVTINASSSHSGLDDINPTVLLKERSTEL
Description: colorimetric COX (ovine) inhibitor screening assay kit. The format is biochemical. The note with it: for SI, selectivity index (COX-1 IC50/COX-2 IC50): ovine COX-1/COX-2; for pIC50: ovine COX-2, mean of two determinations. From the text:
(§1) To determine the relative ability of the test compounds and reference drugs to inhibit COX-1/COX-2 isozymes, we used the colorimetric COX (ovine) inhibitor screening assay kit (Cayman Chemicals Inc., Ann Arbour, MI), according to the manufacturer’s instructions[3]^,[10]^,[11]^,[20].

A further data set deals with T2, COX-1 (Ovis aries, UniProt P05979).
T2 construct: purchased Cayman Chemicals Inc., Ann Arbour, MI
T2 sequence (P05979 25-600): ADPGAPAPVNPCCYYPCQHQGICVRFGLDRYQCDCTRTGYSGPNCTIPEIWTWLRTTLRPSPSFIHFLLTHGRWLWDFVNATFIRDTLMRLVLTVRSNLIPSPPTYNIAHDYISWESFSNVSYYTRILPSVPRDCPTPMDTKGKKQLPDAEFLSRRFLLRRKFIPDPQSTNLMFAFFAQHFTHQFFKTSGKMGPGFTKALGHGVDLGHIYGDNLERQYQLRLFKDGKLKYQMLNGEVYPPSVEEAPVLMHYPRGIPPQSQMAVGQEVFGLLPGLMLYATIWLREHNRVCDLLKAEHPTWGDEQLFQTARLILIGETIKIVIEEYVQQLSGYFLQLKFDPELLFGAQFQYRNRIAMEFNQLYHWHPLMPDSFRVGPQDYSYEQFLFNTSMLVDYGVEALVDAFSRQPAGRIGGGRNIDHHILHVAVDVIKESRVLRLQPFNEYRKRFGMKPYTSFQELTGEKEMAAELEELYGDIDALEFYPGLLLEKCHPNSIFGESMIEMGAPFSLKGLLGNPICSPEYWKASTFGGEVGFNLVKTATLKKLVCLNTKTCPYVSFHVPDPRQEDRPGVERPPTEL
The description is as above. It is filed as biochemical. The note with it: ovine COX-1, mean of two determinations.
From the text: as §1

The subject of another data set is SNB-75 (CNS Cancer). Put plainly: NCI 59 cell line panel, single dose. Conditions: SNB-75, one dose 10.0 μM. It is filed as cell-based.
The subject of a further data set is HOP-92 (NSC Lung Cancer). Description: NCI 59 cell line panel, single dose. The format is cell-based. Conditions: HOP-92, one dose 10.0 μM.

As to `NS(=O)(=O)c1cccc(N2C(=O)C3CC=CCC3C2=O)c1` (stereo not shown) [Compound 3, 3-(1,3-Dioxo-1,3,3a,4,7,7a-hexahydro-2H-isoindol-2-yl)benzenesulfonamide], the melting point (as a rule, the temperature of the solid-liquid transition) lay within 159 to 161 °C. Besides, the GI% in data set [1] came to 12%. In addition, the “PCE (positive cytotoxic effect: cell lines with growth inhibition >10% / total number of cell lines)” value in the data set with 59 cancer cell lines was 3/59. In addition, in [2], the “Mean % increase in paw weight ± SEM” value is on record as 42.4 ± 0.2%; the “% Inhibition of paw oedema from control group” value (shortened to “% Inhibition of paw oedema”) is 77.0% and 77.0 ± 0.6%. Moreover, the GI% with UO-31 (Renal Cancer) turned out to be 16%. Also, on COX-2, the “SI, selectivity index (COX-1 IC50/COX-2 IC50)” value is reported as >250.0 and the negative-log IC50 (pIC50) – broadly, the negative decadic logarithm of the IC50, by convention in mol/L – is 6.70. The negative logarithm of the IC50 (pIC50) against COX-1 is < 4.30. For the same molecule, the GI% with SNB-75 (CNS Cancer) is recorded as 12%.

In turn, `CC(C)(C)c1ccc2c(c1)C(=O)N(c1cccc(S(N)(=O)=O)c1)C2=O` [Compound 6, 3-(5-(tert-Butyl)-1,3-dioxoisoindolin-2-yl)benzenesulfonamide] showed a melting point of 151 to 153 °C. Besides, in the data set with 59 cancer cell lines, the “PCE (positive cytotoxic effect: cell lines with growth inhibition >10% / total number of cell lines)” value was 2/59. For the same molecule, in [2], the “Mean % increase in paw weight ± SEM” value worked out at 106.1 ± 0.9%; the “% Inhibition of paw oedema” value is 40.9% and 40.9 ± 0.6%. Further, at COX-2, the “SI, selectivity index (COX-1 IC50/COX-2 IC50)” value was >12.5 and the negative logarithm of the IC50 (pIC50) is 5.40. Also, the pIC50 against COX-1 is < 4.30. The GI% in the data set with HOP-92 (NSC Lung Cancer) amounted to 19%. This molecule showed a GI% in the data set with SNB-75 (CNS Cancer) of 12%.

Take `NS(=O)(=O)c1cccc(N2C(=O)c3c(Cl)c(Cl)c(Cl)c(Cl)c3C2=O)c1` [Compound 8]: in the data set with 59 cancer cell lines, the “PCE (positive cytotoxic effect: cell lines with growth inhibition >10% / total number of cell lines)” value is recorded as 3/59. Further, the “Mean % increase in paw weight ± SEM” value in data set [2] is 134.0 ± 0.9%. The “% Inhibition of paw oedema” value in data set [2] is 26.9% and 26.9 ± 0.5%. Also, the GI% stood at 17% with UO-31 (Renal Cancer), 11% in the data set on HOP-92 (NSC Lung Cancer) and 13% in the data set with SNB-75 (CNS Cancer).
